According to paper PMC10818329, “An Ultra-Performance Liquid Chromatography–Tandem Mass Spectrometry (UPLC–MS/MS) Method for Qualifying DAPB in Rat Plasma and Application to Pharmacokinetic Studies” (Molecules, 2024):

Experiments:
SHR rats = system: SHR rats; set-up: method as in PMID 37446639; details: cited from earlier work
[1] = Stability of DAPB in rat plasma (NaF added); assay type: in vitro ADME; details: for Stability RE (%): n = 6
Experimental: Esterase widely exists in the blood, serum, and plasma of organisms. Therefore, DAPB may be unstable and easily hydrolyzed by plasma esterases owning to the ester group. In the method-development process, the stability of DAPB in whole blood and plasma was tested in detail. Low temperature is an important factor for maintaining the stability of the analyte; therefore, in our study, an ice-water bath was used to provide cooling conditions. Sodium fluoride (NaF), a typical esterase inhibitor, was pre-added in the collected blood samples to prevent the hydrolysis of DAPB. In the plasma with NaF added, DAPB was stable after being placed at room temperature for 4 h, −80 °C for 30 days, and then subject to three freeze/thaw cycles. In addition, the post-preparative plasma sample stored in an autosampler for 24 h remained stable.
The stability of DAPB in rat plasma was assessed by using QC samples at three concentrations in six replicates following three freeze/thaw cycles, short-term storage (room temperature for […]), long-term storage (−80 °C for 30 consecutive days), and autosampler rack storage (4 °C for 24 h). In freeze/thaw cycle tests, the QC samples were frozen and stored at −80 °C and then thawed at room temperature; this was repeated three times. The values of stability were calculated by comparing the concentrations of the QC samples following each storage period with the concentrations of the freshly prepared QC samples in the same analytical run.

[2] = Pharmacokinetic study of DAPB in rats (plasma, UPLC–MS/MS); assay type: in vivo, Sprague–Dawley (SD) rats
Experimental: Sprague–Dawley (SD) rats (180–200 g) were purchased from the Experimental Animal Center of Xi’an Jiaotong University (permit number SCXK 2017–003) and housed under controlled conditions (25 °C, 50 ± 5% humidity, and 12 h dark–light cycles). The animal protocol was approved by the Animal Ethics Committee of Xi’an Medical College. […] For the intravenous administration group, DAPB prepared in saline containing 5% DMSO was injected in the tail vein at a dose of 6 mg/kg. For the oral administration group, rats were given DAPB dissolved in 10% (2-hydroxypropyl)-β-cyclodextrin in water (10% HP-β-CD solution) containing 20% PEG200 and 20% propylene glycol at a dose of 30 mg/kg orally. Blood samples were collected in heparinized tubes pretreated with NaF via the ophthalmic venous plexus before and at 0.083, 0.17, 0.25, 0.50, 1.00, 2.00, 4.00, and 8.00 h after dosing. After centrifugation, the supernatant plasma was obtained and stored at −80 °C for further treatment. For the preparation of the plasma samples, 10 μL of the IS working solution (1 μg/mL), 1 μL of NaF (5 mg/mL), and 290 μL of acetonitrile were added to 100 μL of the plasma samples. Subsequently, the mixed plasma samples were centrifuged twice at 16,000× g for 5 min at 4 °C after vortexing for 30 s. For analysis, 10 μL of the supernatant was injected into the UPLC–MS/MS apparatus.

[3] = Sprague-Dawley, rat plasma, intravenous administration at 6 mg/kg, mean ± SD (n = 6)
[4] = Sprague-Dawley, rat plasma, oral administration at 30 mg/kg, mean ± SD (n = 6)
[5] = rat plasma, oral administration at 30 mg/kg, mean ± SD (n = 6)

For `C[C@@H](NC(=O)C(O)Cc1ccc(O)c(O)c1)C(=O)N1CCC[C@H]1C(=O)OC1CC2CCC1(C)C2(C)C` (stereo partly drawn) [DAPB, (2R)-3-(3,4-dihydroxyphenyl)-2-hydroxypropionyl-L-alanyl-L-proline bornyl ester], the “Decrease of diastolic blood pressure (DBP)” value (SHR rats) is given as 35 mmHg, the “Decrease of systolic blood pressure (SBP)” value (SHR rats) is given as 50 mmHg and the “Stability RE (%)” value ([1]; post-preparative rat plasma sample, autosampler rack (4 °C) for 24 h, spiked conc. 5 ng/mL) is given as −11.6%. The “Stability RE (%)” value ([1]; post-preparative rat plasma sample, autosampler rack (4 °C) for 24 h, spiked conc. 500 ng/mL) was −7.4%, the “Stability RE (%)” value ([1]; post-preparative rat plasma sample, autosampler rack (4 °C) for 24 h, spiked conc. 1000 ng/mL) was −3.4% and the “Stability RE (%)” value ([1]; rat plasma, room temperature for 2 h, spiked conc. 5 ng/mL) was −10.2%. The “Stability RE (%)” value ([1]; rat plasma, room temperature for 2 h, spiked conc. 500 ng/mL) was −7.5%, the “Stability RE (%)” value ([1]; rat plasma, room temperature for 2 h, spiked conc. 1000 ng/mL) was 1.2% and the “Stability RE (%)” value ([1]; rat plasma, three freeze/thaw cycles, spiked conc. 5 ng/mL) was −6.4%. The “Stability RE (%)” value ([1]; rat plasma, three freeze/thaw cycles, spiked conc. 500 ng/mL) was 2.6%, the “Stability RE (%)” value ([1]; rat plasma, three freeze/thaw cycles, spiked conc. 1000 ng/mL) was −2.0% and the “Stability RE (%)” value ([1]; rat plasma, −80 °C for 30 days, spiked conc. 5 ng/mL) was 5.3%. For the same compound, the “Stability RE (%)” value ([1]; rat plasma, −80 °C for 30 days, spiked conc. 500 ng/mL) was −6.2%, the “Stability RE (%)” value ([1]; rat plasma, −80 °C for 30 days, spiked conc. 1000 ng/mL) was −4.6% and the “Stability in plasma with NaF added (in words)” value ([1]; room temperature for 4 h, −80 °C for 30 days, three freeze/thaw cycles) was “stable”. The bioavailability ([2]; Sprague-Dawley, plasma, rat, oral 30 mg/kg vs intravenous 6 mg/kg) was 78.2%, the AUC(0-inf) [2, 3] was 13.8 ± 2.1 ng·h/mL and the AUC(0-t) [2, 3] was 11.8 ± 1.66 ng·h/mL. It also gave a half-life [2, 3] of 11.4 ± 0.6 min, a Vd ([2]; Sprague-Dawley, rat plasma, intravenous administration at 6 mg/kg, mean ± SD (n = 6), read-out: Vss) of 910 ± 24.4 L/kg and an AUC(0-inf) [2, 4] of 53.9 ± 8.34 ng·h/mL. For the same compound, the AUC(0-t) [2, 4] was 49.6 ± 7.92 ng·h/mL, the Cmax [2, 4] was 33.2 ± 10.9 ng/mL and the Tmax [2, 4] was 14.7 min. The half-life [2, 4] was 97.8 ± 21.6 min, the CL [2, 5] was 89,992.36 ± 10,292.61 mL/h/kg and the Vss [2, 5] was 264.73 ± 65.86 L/kg.
